Measurements published in patent US20030187017A1, “Method for treating functional dyspepsia” (priority 2002, published 2003).

Columns and labels:
[1] = tested on: FD patients and healthy controls; details: cited from earlier work
[2] = tested on: FD patients; assay: Adverse events in the 12-week clinical study in FD patients; format: in vivo, human
Experimental: The study was double-blinded and placebo-matched. Eligible subjects were randomized (1:1:1:1 ratio) to either alosetron 0.5 mg, 1 mg, 2 mg, or matched placebo twice daily for a 12-week treatment phase followed by a one-week follow-up period. Laboratory evaluations and adverse events were recorded at the 4, 8 and 12-week (or final) treatment visits.
Adverse events were coded and group by body system. Adverse events occurring after randomization were summarized separately from adverse events occurring during the screening phase. For each body system and over all body systems, the frequency of subjects reporting at least one adverse event was calculated by treatment group. In addition, the number of subjects reporting at least one drug-related adverse event and the number of subjects reporting serious adverse events were summarized by treatment group. The four treatment groups were compared using a correlation chi-square test; pairwise comparisons were made with Fisher's exact test.

[3] = tested on: FD patients; assay: 12-week double-blind placebo-matched clinical study in FD patients: adequate relief of upper abdominal pain or discomfort and FD symptoms; format: in vivo, human; details: for Average Weekly Adequate Relief of Pain and Discomfort, Adequate Relief Rates: 12 weeks
Experimental: Three hundred and twenty (320) ambulatory outpatient male and female FD patients at least 18 years of age who have chronic or recurrent abdominal pain or discomfort centered in the upper abdomen were randomised for study comprising twelve (12) weeks of treatment: eighty one (81) were randomised to treatment with placebo BID, seventy seven (77) to 0.5 mg BID alosetron, seventy nine (79) to 1 mg BID alosetron, and eighty three (83) to 2 mg BID alosetron. Study participants included patients who have been diagnosed with FD and patients with symptoms that fulfilled the modified Rome criteria for FD for at least 6 months. Study participants were screened for two weeks prior to the testing phase, to confirm symptoms of sufficient severity for participation in the study. During the two-week screening period, those patients enrolled from the U.S. underwent a 90-minute gastric emptying test to characterize their gastric motility. At the end of the two-week period, all study participants underwent an esophagogastroduodenoseope (EGD) to rule out organic disease and obtain a biopsy for H. pylori within one month of screening. The study was double-blinded and placebo-matched. Eligible subjects were randomized (1:1:1:1 ratio) to either alosetron 0.5 mg, 1 mg, 2 mg, or matched placebo twice daily for a 12-week treatment phase followed by a one-week follow-up period. Laboratory evaluations and adverse events were recorded at the 4, 8 and 12-week (or final) treatment visits. The study was designed to elicit measurements relating to efficacy and safety. The primary endpoint was adequate relief of FD (upper abdominal) pain or discomfort. Secondary endpoints included 1) changes in daily upper abdominal pain severity ratings, 2) proportion of pain free days, 3) changes in self-ratings of nausea, early satiety, bloating or distension, post-prandial fullness and burping or belching, 4) changes in quality of life (QOL) SF-36 scores, 5) changes in SCL-90R® scores, and 6) safety and tolerability with respect to the incidence of adverse events and changes in laboratory values. Daily and weekly symptom data were collected using an electronic touch-tone telephone based system described in J. Harding, et al., Gastroenterology 112:[…] (1997); and J. Harding, et al., Aliment Pharm. Ther. 11:1073-761997. Severity of abdominal pain, nausea and bloating were assessed on a daily basis using a five point scale (0=none; 1=very mild; 2=mild; 3=moderate; 4=severe). During screening, the pain severity score was required to average ≧1.5 for entry into the study. During the treatment and follow-up phases, subjects were asked weekly if they had obtained adequate relief of their upper abdominal pain or discomfort during the previous 7 days. Subjects also responded daily to yes/no questions assessing whether early satiety, post-prandial fullness and burping or belching were present. Analyses were by Intent-to-Treat (ITT) using the last observation carried forward (LOCF) method for handling missing data. The ITT population included all subjects randomized to study treatment. The primary efficacy endpoint was the adequate relief of upper abdominal pain or discomfort. The 12-week average rate of adequate relief was calculated as the sum of the number of responses of “yes” over the 12 weeks of the treatment phase divided by 12 and multiplied by 100 using the LOCF approach. The proportion of patients with weekly adequate relief of upper abdominal pain or discomfort was compared between treatment groups using the Mantel-Haenszel test stratified by geographical clusters of treatment centers. Secondary efficacy measures included subject self-rating of pain severity, frequency and the FD symptoms of nausea, bloating/distension, burping/belching, early satiety and post-prandial fullness. […]

[4] = tested on: healthy subjects; details: isobarometric and isovolumetric gastric distensions; cited from earlier work

CN1[C@@H]2CC[C@H]1C[C@@H](OC(=O)c1c[nH]c3ccccc13)C2 [tropisetron]
Gastric accommodation, reflex relaxation or gastric sensitivity [1]: did not influence

Cc1[nH]cnc1CN1CCc2c(c3ccccc3n2C)C1=O [Alosetron, 2,3,4,5-tetrahydro-5-methyl-2-[(5-methyl-1H-imidazol-4-yl)methyl]-1H-pyrido[4,3-b]indol-1-one]
Adverse Events: Any event ([2]; 0.5 mg BID): 68%
Adverse Events: GI event ([2]; 0.5 mg BID): 58%
Adverse Events: Neurology ([2]; 0.5 mg BID): 9%
Adverse Events: constipation ([2]; 0.5 mg BID): 45%
Adverse Events: Any event ([2]; 1 mg BID): 68%
Adverse Events: GI event ([2]; 1 mg BID): 52%
Adverse Events: Neurology ([2]; 1 mg BID): 4%
Adverse Events: constipation ([2]; 1 mg BID): 34%
Adverse Events: Any event ([2]; 2 mg BID): 75%
Adverse Events: GI event ([2]; 2 mg BID): 63%
Adverse Events: Neurology ([2]; 2 mg BID): 16%
Adverse Events: constipation ([2]; 2 mg BID): 46%
Tolerability ([2]; FD patients): well-tolerated
Average Weekly Adequate Relief, % with Adequate Relief ([3]; Abnormal gastric emptying (n = 14-16), 0.5 mg BID): 51%
Average Weekly Adequate Relief, % with Adequate Relief ([3]; Abnormal gastric emptying (n = 14-16), 1 mg BID): 59%
Average Weekly Adequate Relief, % with Adequate Relief ([3]; Abnormal gastric emptying (n = 14-16), 2 mg BID): 45%
Abdominal pain and discomfort ([3]; FD patients, particularly female FD patients): substantially improved
Average Weekly Adequate Relief of Pain and Discomfort, Adequate Relief Rates ([3]; Females (n = 50-60), 0.5 mg BID): 49
Average Weekly Adequate Relief of Pain and Discomfort, Adequate Relief Rates ([3]; Females (n = 50-60), 1 mg BID): 54
Average Weekly Adequate Relief of Pain and Discomfort, Adequate Relief Rates ([3]; Females (n = 50-60), 2 mg BID): 43
Average Weekly Adequate Relief of Pain and Discomfort, Adequate Relief Rates ([3]; Males (n = 20-33), 0.5 mg BID): 39
Average Weekly Adequate Relief of Pain and Discomfort, Adequate Relief Rates ([3]; Males (n = 20-33), 1 mg BID): 43
Average Weekly Adequate Relief of Pain and Discomfort, Adequate Relief Rates ([3]; Males (n = 20-33), 2 mg BID): 40
Average Weekly Adequate Relief, % with Adequate Relief ([3]; Normal gastric emptying (n = 32-34), 0.5 mg BID): 60%
Average Weekly Adequate Relief, % with Adequate Relief ([3]; Normal gastric emptying (n = 32-34), 1 mg BID): 56%
Average Weekly Adequate Relief, % with Adequate Relief ([3]; Normal gastric emptying (n = 32-34), 2 mg BID): 43%
Improvement in adequate relief by gastric emptying status ([3]; all doses, subjects with normal and subjects with abnormal gastric emptying): Improvement was observed for all doses
Adequate relief rate as compared with placebo ([3]; each dose (0.5, 1, 2 mg BID)): greater adequate relief rate as compared with placebo
Nausea, early satiety and post-prandial fullness ([3]; female patients and patients with normal gastric emptying): substantially improved
Visceral perception scores [4]: effect similar to placebo
